Measurements as given in the supplement of paper PMC10307832.

Experiments:
Assay in all cases: relative viability (nuclei count vs DMSO), 5 days (fraction); higher = more cells survive
[1] = compound: CC[C@H](C)N1C=C(C2=C(C=C(C=C21)C3=CN=C(C=C3)N4CCNCC4)C(=O)NCC5=C(C=C(NC5=O)C)C)C [GSK126] + CC(C)C[C@H](NC(=O)[C@H](Cc1ccccc1)NC(=O)c1cnccn1)B(O)O [Bortezomib] (partner 0.002 µM)
How it was run: (§1)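 Five library-drug doses in √10 steps were combined with a fixed anchor-drug dose, or a single drug was given alone, by pin tool to lung cancer cell lines in 1536-well plates the day after seeding. Nuclei were stained and counted after 5 days. Relative viability is the nuclei count in treated wells over that in vehicle wells, taken as the median of duplicate plates.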

[2] = compound: C1CC(C1)(C(=O)O)C(=O)O.[NH2-].[NH2-].[Pt+2] [Carboplatin] + Nc1ncn([C@H]2C[C@H](O)[C@@H](CO)O2)c(=O)n1 [Decitabine] (partner 2 µM)
How it was run: as §1

[3] = compound: CC[C@H](C)N1C=C(C2=C(C=C(C=C21)C3=CN=C(C=C3)N4CCNCC4)C(=O)NCC5=C(C=C(NC5=O)C)C)C [GSK126] + COc1cc2c(Oc3ccc(NC(=O)C4(C(=O)Nc5ccc(F)cc5)CC4)cc3F)ccnc2cc1OCCCN1CCOCC1 [Foretinib] (partner 0.25 µM)
How it was run: as §1

| Cell Line | relative viability ([1]; first compound 0.08 µM) | relative viability ([1]; first compound 0.253 µM) | relative viability ([1]; first compound 0.8 µM) | relative viability ([1]; first compound 2.53 µM) | relative viability ([1]; first compound 8 µM) | relative viability ([2]; first compound 0.08 µM) | relative viability ([2]; first compound 0.253 µM) | relative viability ([2]; first compound 0.8 µM) | relative viability ([2]; first compound 2.53 µM) | relative viability ([2]; first compound 8 µM) | relative viability ([3]; first compound 0.08 µM) | relative viability ([3]; first compound 0.253 µM) | relative viability ([3]; first compound 0.8 µM) | relative viability ([3]; first compound 2.53 µM) | relative viability ([3]; first compound 8 µM) |
| --- | --- | --- | --- | --- | --- | --- | --- | --- | --- | --- | --- | --- | --- | --- | --- |
| EMC-BAC-2 | 1.02 | 1.04 | 1.05 | 1.03 | 1.05 | 1.01 | 0.944 | 0.999 | 0.922 | 0.716 | 1.07 | 0.964 | 0.706 | 0.98 | 1.03 |
| LC-2-ad | 1.03 | 1.04 | 0.935 | 1.02 | 0.986 | 0.753 | 0.93 | 0.708 | 0.776 | 0.64 | 1.08 | 0.971 | 0.915 | 0.995 | 1.07 |
| ABC-1 | 0.319 | 0.35 | 0.336 | 0.309 | 0.268 | 1.02 | 1.12 | 1.01 | 0.931 | 0.52 | 1.31 | 1.15 | 0.955 | 1.14 | 0.959 |
| NCI-H647 | 1.06 | 0.808 | 1.03 | 1.07 | 0.882 | 0.45 | 0.305 | 0.286 | 0.292 | 0.306 | 1.21 | 1.23 | 0.971 | 1.45 | 1.26 |
| NCI-H1734 | 0.98 | 0.979 | 1.02 | 0.87 | 0.871 | 0.485 | 0.46 | 0.483 | 0.465 | 0.438 | 0.931 | 0.868 | 0.771 | 0.817 | 0.904 |
| LOU-NH91 | 0.444 | 0.475 | 0.498 | 0.439 | 0.501 | 0.873 | 0.832 | 0.806 | 0.792 | 0.77 | 0.991 | 0.953 | 0.892 | 0.974 | 0.969 |
| NCI-H441 | 0.445 | 0.452 | 0.419 | 0.507 | 0.519 | 0.215 | 0.242 | 0.211 | 0.209 | 0.222 | 0.889 | 0.866 | 0.975 | 0.926 | 0.715 |
| RERF-LC-KJ | 1.14 | 1.23 | 0.938 | 1.16 | 1.07 | 0.627 | 0.665 | 0.646 | 0.574 | 0.422 | 0.955 | 0.893 | 0.852 | 0.897 | 0.825 |
| H3255 | 0.729 | 0.731 | 0.683 | 0.802 | 0.879 | 0.775 | 0.504 | 0.687 | 0.622 | 0.421 | 1.07 | 0.887 | 0.894 | 0.987 | 0.983 |
| A-427 | 1.06 | 0.977 | 1.02 | 0.989 | 0.973 | 0.593 | 0.562 | 0.571 | 0.527 | 0.512 | 1.31 | 0.999 | 1.07 | 1.1 | 1.13 |
